According to patent US10471054B2, “CDK1 inhibitors of acetyl chrysin mannich base derivatives, synthesis and use thereof” (priority 2016, dated 2019):

Legend:
BGC-823 = experiment: Annexin V-FITC-PI double fluorescence, apoptosis and necrosis; type: cell-based; details: 24 h
Text: There is a series of morphological characteristic changes in the apoptosis of cells, in which the change of the plasma membrane is one of the characteristics of early apoptosis. The cytoplasm is flipped from the inside of the cytoplasm to the outer surface of the cell when the cell apoptosis, Annexin V is a Ca^++ dependent phospholipid binding protein, which has a high affinity with phospholipid-peptide-serine, which can be combined with the phospholipid peptide specificity that is exposed to the extracellular cells. However, cytoplasm transfer to cell membrane is not unique to apoptosis, but also can occur in cell necrosis. The difference between the two cell death modes is that the cell membrane is intact in the initial stage of apoptosis, and the integrity of the cell membrane in its early stage is destroyed. PI is a nucleic acid dye that cannot pass through the intact cell membrane, but in the cell and necrotic cells in the middle and late stage of apoptosis, the PI can dye the nucleus through the cell membrane. Annexin V-FITC-PI was used to detect apoptosis and necrotic cell ratio on flow cytometry.
A relatively small increase in apoptotic cells is increased.
FIG. 3-3 Annexin V-FITC/PI staining results for BGC-823.

caspase-3, 8, 9 = experiment: Caspase activity in BGC-823; type: cell-based; details: range of 0-10 μM, 24 h
Text: Caspase is a series of cysteinyl aspartate specific proteinase in the cytoplasm of protease with closely related to cell apoptosis, and participate in cell growth, differentiation and apoptosis regulation. Caspase is same key enzymes in apoptosis process and in the apoptosis of the mediated cells, there are almost all apoptotic signaling pathways involved in the pathway of caspase. […] Caspase-8 is an early starter for the induction of apoptosis, and the caspase-3 is the late executor. Pro-caspase-9 is dissociation with phosphorylation surviving, and inhibiting cell apoptosis and promoting division. Pro-caspase-9 by H2O2 is oxidized into caspase-9-S—S-caspase-9 with inhibiting cell division and inducing apoptosis. H2O2 can directly oxidize and activate caspase, hydrolyze antiapoptotic protein Bcl-2 and Bcl-xl substrate, so selectively induce apoptosis of cancer cells and reduce the damage of normal cells.
FIG. 3-4: caspases: X-coordinate is CH-j concentration (μM) and Y-coordinate the activity of caspase (%) for BGC-823.

[1] = Main metabolic pathways, glucose aldehyde acid metabolism; details: in vivo
Text: (I) Neutral degradation in normal cells: CH-j is hydrolyzing into Hydroxy-phenyl-acetic acid (M152), 1-(2, 4, 6-Trihydroxy-phenyl)-ethanone (M168) and N-hydroxymethyl-piperidin-4-one (M129) as the main metabolic pathways.
Flavopiridol, p276-00 and Vorciclib of Chrysin-organic amine derivatives, duo to mainly C7-glucose aldehyde acidification metabolites by oral, only a small amount is into the tissue cells. In the tissue cells, it is not easy to be metabolized in part because of the organic amine substituents, thus producing strong cytotoxicity. […] CH-j can enhance I phase metabolism and inhibit II phase metabolism. […] [Scientific Reports, 2015, 5: 13626; Fitoterapia, 2015, 107:36-34.]

[2] = Tissue distribution in rat, 2 h; type: in vivo
Method: The distribution results of CH-j tissue distribution were shown in FIG. 6, when CH-j 100 mg/kg rat by venous intravenous (i.v.) or oral (p.o.) 2 h. […] CH-j by oral in the stomach concentration of the large, about 2 time higher than other tissues. […] Compared with the intravenous administration, the oral administration was completely absorbed and the bioavailability was close to 100%.
FIG. 6: 2 h distribution of the drug (100 mg/kg) by CH-j rats: Y-coordinate is the concentration of CH-j (μg/g), by intravenous (i.v.), by oral (p.o.).

[3] = Pharmacokinetics by oral in monkey (urine drug concentration-time curve); type: in vivo; details: rhesus, monkey (n = 6), 3 mg/kg

For `CC(=O)c1c(O)c(CN2CCC(O)CC2)c2oc(-c3ccccc3)cc(=O)c2c1O` [CH-j, 6-Acetyl-5,7-dihydroxy-8-(4-hydroxy-piperidin-1-ylmethyl)-2-phenyl-chromen-4-one], the “Apoptosis and necrosis by Annexin V-FITC-PI” value (BGC-823) was “induce apoptosis the BGC-823 with obvious dose-dependent manner”, the “Activation of caspase-3, 8, 9” value (caspase-3, 8, 9) was “activated caspase-3, 8, 9 both in a dose-dependent upward trend” and the “Dependence of metabolic pathway on CYP3A4” value [1] was “independent of CYP3A4”. The “Concentration in the stomach relative to other tissues” value ([2]; 100 mg/kg rat, oral, 2 h) was “about 2 time”, the bioavailability ([2]; in vivo, rat 100 mg/kg, oral compared with intravenous) was ~100% and the “Detection of prototype drug in blood, urine, tissues” value ([2]; rat) was “In the blood, urine, bile and tissues, the prototype drugs and metabolites can be detected”. For the same molecule, the Blood-brain barrier passage ([2]; rat 100 mg/kg, 2 h) was “able to pass the blood-brain barrier” and the AUC(0-inf) [3] was 20.4 µM·h.
